ChEMBL document CHEMBL1201862, “PubChem BioAssay data set” (2004)
Active and inactive are the calls of the source.

How the values were obtained:
Cytochrome P450 3A4 = Cytochrome P450 3A4 (Homo sapiens, UniProt P08684);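 note: CYP3A4 tested as one member of a cytochrome P450 panel screen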
[1] = biological target: T1, Short transient receptor potential channel 4 (Mus musculus, UniProt Q9QUQ5); test: calcium entry via TRPC4 opening agents – cell-based, HEK293 TRPC4/mu-opioid, Fluo-4 calcium, dose response (AID 434937); assay type: functional
T1 sequence (Q9QUQ5 whole entry): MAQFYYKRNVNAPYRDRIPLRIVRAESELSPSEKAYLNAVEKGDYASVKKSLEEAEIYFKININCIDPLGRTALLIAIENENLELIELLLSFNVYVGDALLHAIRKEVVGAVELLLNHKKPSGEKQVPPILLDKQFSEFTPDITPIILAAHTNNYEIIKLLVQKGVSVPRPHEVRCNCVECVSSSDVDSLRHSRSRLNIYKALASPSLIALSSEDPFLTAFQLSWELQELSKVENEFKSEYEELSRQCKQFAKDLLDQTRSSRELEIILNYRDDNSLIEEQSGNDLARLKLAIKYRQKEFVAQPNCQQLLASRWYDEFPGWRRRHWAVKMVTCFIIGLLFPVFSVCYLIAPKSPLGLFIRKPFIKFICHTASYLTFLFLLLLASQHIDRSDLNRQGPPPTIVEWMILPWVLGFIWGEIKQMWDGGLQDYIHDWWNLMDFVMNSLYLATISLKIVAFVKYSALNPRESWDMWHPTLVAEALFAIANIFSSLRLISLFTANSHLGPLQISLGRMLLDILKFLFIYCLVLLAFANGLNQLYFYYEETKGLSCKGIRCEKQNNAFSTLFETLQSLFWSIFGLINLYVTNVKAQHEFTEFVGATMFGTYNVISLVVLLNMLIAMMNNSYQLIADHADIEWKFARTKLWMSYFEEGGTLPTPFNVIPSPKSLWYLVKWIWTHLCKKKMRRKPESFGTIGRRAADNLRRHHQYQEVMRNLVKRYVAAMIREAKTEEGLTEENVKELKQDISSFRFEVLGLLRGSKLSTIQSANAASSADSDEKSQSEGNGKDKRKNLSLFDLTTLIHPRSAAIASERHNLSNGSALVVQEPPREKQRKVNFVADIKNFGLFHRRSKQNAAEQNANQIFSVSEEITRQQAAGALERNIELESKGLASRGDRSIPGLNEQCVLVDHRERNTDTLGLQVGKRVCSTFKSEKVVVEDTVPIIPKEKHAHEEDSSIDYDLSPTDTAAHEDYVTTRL

[2] = non-specific 3'UTR reporter inhibition in Clone20-Shn3RL – cell-based, Renilla luciferase, cherry-picked, counter-screen for Shn3 inhibitor project, dose response (AID 624133); assay type: functional
[3] = NIH3T3 cell viability loss – ATP luminescence, mouse fibroblasts, counter-screen, dose response (AID 2010); assay type: functional, cell-based;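 note: cells exposed to compound for about 90 hours before reading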
INS1 = test: INS-1E survival protection against cytokine death – cell-based, luminescence, retest, dose response (AID 449756); assay type: functional; conditions: Rattus norvegicus;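 note: cell death triggered by IL-1 beta plus TNF-alpha plus IFN-gamma mixture; protective hits raise ATP signal compared with cytokine alone wells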
[4] = Counterscreen for AddAB inhibitors: absorbance-based bacterial cell-based high throughput dose response assay for inhibitors of bacterial viability. [Related pubchem assays (depositor defined):AID435030, AID449728, AID449731, AID488942, AID488955, AID488956]; assay type: functional
[5] = Trypanosoma cruzi growth suppression in host cells – NIH3T3 host cells, beta-gal luminescence, confirmation (AID 2044); assay type: functional, cell-based;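 note: intracellular parasites grown in NIH/3T3 mouse fibroblasts as host cells; luminescent beta-galactosidase reporter signal from transgenic T. cruzi replicating inside host cells; inhibitors lower the luminescence signal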
[6] = reduction of Shn3 3'UTR-driven luciferase in osteoblasts – cell-based, Clone20 osteoblasts, firefly luciferase, cherry-picked, dose response (AID 624132); assay type: functional;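 note: firefly luciferase luminescence from reporter carrying the Shn3 3'UTR in osteoblasts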
cells [7] = assay type: functional, cell-based
Exodeoxyribonuclease V = biological target: T2, Exodeoxyribonuclease V (Escherichia coli (strain K12), UniProt P04993+P07648+P08394); test: RecBCD inhibition via phage-restricted bacterial growth – absorbance, V66 E. coli, mutant T4 phage, counter-screen for AddAB inhibitor project, dose response (AID 492957); assay type: functional, cell-based, Escherichia coli str. K-12 substr. MG1655
T2 sequence (P04993 whole entry): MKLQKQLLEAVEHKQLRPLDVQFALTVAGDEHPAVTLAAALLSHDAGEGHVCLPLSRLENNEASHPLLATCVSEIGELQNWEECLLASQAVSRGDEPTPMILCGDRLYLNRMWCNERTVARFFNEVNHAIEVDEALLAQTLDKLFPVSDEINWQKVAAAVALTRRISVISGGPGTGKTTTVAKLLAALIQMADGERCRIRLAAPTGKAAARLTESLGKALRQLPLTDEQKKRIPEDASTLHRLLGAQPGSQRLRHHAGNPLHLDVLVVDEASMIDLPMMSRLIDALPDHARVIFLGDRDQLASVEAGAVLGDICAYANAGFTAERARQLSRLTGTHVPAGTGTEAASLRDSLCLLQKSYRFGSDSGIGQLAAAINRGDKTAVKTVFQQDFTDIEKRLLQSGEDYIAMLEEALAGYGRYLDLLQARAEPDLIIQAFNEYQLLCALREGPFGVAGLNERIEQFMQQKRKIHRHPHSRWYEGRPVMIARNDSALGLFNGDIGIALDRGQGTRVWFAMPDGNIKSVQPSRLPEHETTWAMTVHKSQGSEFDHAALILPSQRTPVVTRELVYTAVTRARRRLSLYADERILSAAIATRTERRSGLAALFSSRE
T2 sequence (P07648 whole entry): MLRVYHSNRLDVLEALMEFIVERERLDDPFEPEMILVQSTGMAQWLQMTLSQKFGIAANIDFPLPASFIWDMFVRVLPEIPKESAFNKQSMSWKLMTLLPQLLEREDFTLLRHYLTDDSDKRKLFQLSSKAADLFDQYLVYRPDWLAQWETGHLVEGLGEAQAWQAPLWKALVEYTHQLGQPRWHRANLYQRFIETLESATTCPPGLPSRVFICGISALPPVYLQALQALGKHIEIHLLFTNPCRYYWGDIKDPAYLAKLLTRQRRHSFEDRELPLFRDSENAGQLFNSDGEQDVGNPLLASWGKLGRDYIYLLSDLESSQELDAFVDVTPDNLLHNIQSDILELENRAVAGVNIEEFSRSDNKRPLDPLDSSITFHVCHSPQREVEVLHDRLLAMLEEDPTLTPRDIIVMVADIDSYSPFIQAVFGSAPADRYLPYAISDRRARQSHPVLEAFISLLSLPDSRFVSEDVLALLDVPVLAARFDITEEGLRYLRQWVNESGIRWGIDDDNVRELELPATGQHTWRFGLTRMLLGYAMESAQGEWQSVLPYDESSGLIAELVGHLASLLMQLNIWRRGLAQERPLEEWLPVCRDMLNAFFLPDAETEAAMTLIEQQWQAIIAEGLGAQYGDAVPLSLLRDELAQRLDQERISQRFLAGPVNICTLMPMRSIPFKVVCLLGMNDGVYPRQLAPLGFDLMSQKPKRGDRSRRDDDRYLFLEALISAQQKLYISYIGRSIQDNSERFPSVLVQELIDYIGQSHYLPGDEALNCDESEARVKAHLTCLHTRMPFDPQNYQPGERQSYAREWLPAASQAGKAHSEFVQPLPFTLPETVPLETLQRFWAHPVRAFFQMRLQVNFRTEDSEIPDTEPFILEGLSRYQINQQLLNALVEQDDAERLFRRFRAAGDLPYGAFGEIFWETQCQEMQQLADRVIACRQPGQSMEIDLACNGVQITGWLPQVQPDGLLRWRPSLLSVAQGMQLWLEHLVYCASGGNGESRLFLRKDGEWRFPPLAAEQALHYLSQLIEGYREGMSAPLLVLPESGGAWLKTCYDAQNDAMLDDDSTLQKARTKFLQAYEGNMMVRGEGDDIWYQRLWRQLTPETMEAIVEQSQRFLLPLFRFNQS
T2 sequence (P08394 whole entry): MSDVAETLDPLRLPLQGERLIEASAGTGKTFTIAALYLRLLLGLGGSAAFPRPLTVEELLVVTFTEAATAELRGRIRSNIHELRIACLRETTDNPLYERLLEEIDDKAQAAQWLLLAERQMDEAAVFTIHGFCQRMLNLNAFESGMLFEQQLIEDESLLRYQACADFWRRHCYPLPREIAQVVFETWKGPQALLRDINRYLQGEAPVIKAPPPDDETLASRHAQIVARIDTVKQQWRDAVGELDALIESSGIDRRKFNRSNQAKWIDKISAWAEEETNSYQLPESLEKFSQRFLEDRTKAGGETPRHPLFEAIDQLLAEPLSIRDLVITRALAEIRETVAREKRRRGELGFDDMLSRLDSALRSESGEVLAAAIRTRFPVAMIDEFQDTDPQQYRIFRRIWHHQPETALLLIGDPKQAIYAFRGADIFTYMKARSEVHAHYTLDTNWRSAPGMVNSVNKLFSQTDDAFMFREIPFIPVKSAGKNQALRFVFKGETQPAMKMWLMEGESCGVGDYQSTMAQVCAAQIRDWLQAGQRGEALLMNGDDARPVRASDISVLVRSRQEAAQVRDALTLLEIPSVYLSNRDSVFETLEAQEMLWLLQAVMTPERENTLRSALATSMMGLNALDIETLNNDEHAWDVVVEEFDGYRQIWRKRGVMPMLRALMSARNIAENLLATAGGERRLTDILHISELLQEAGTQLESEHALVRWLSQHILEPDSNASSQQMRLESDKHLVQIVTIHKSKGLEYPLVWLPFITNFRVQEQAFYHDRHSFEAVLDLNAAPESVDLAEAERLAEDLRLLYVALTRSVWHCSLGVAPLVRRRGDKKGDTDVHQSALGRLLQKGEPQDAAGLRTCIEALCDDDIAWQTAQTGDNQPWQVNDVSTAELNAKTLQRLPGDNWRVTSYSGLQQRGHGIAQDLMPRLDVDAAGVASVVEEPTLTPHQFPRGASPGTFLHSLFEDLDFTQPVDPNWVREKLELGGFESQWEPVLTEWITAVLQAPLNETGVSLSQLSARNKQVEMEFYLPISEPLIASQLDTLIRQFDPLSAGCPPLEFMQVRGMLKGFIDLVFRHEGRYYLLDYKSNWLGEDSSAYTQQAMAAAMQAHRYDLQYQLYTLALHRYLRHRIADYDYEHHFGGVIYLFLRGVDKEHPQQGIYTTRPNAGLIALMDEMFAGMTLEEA

[8] = loss of viability in HepG2 cells – cell-based, CellTiter-Glo, cherry-picked, cytotoxicity control for Shn3 inhibitor project, dose response (AID 624134); assay type: functional
Vero = test: cells; assay type: functional; conditions: Chlorocebus sabaeus
Streptococcus = test: GAS UMAA2166 growth inhibition – luminescence, BacTiterGlo, counter-screen for streptokinase expression inhibitor project, dose response (AID 1915); assay type: functional, organism-based;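 note: potency for reduction of bacterial viability or growth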
[9] = tested on: Streptococcus sp. 'group A'; test: Streptococcus pyogenes SK(-)GAS viability under kanamycin – luminescence, BacTiterGlo, confirmation, counter-screen for streptokinase expression inhibitor project, dose response (AID 1900); assay type: functional, organism-based
cells [10] = assay type: functional, cell-based; remark: listed apart in the source

Cytochrome P450 3A4, sequence (P08684 whole entry): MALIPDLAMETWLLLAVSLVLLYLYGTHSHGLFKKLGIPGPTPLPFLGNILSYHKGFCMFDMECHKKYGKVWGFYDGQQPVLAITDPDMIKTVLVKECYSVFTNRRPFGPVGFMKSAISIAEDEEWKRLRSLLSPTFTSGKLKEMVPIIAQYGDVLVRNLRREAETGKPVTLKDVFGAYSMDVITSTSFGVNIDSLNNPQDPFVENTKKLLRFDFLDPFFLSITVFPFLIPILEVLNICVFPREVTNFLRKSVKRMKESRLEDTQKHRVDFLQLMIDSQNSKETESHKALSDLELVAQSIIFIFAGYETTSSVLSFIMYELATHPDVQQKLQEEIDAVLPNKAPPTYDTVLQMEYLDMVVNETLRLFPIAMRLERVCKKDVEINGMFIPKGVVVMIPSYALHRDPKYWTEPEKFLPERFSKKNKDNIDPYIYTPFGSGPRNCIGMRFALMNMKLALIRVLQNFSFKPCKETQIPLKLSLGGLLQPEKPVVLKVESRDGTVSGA

With `Cn1c(=O)c(-c2ccc(F)cc2)nc2cnc(Oc3ccccc3)nc21` the AC50 (Cytochrome P450 3A4) was “inconclusive”.

For `Cc1cccc(C(=O)NC(=S)NNC(=O)c2cccs2)c1`, the EC50 [1] was 2.99 µM (active).

For `CCCC(=O)NC(c1ccc(Cl)cc1Cl)c1ccc2cccnc2c1O` (stereo not given), the AC50 [2] was 3.61 µM (active), the EC50 [3] was 0.543 µM (active) and the AC50 (INS1) was 0.491 µM (active). For the same molecule, the IC50 [4] was > 119 µM (inactive), the EC50 [5] was 0.102 µM (active) and the AC50 [6] was 0.638 µM (active). The EC50 (cells [7]) was > 350 µM (not active), the IC50 (Exodeoxyribonuclease V) was > 119 µM (inactive) and the AC50 [8] was > 70 µM (inactive). The CC50 (Vero) was 1.15 µM (active), the EC50 (Streptococcus) was 7.38 µM (active) and the EC50 [9] was 1.01 µM (active). The EC50 (cells [10]) was 7.39 µM (active).
